Results reported in PubChem BioAssay (NCI).
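Growth conditions: 96-well plates. Treatment: test compound, 48 hours, 5 concentrations. Analysis: linear interpolation between bracketing concentrations; unreached endpoints set to highest concentration. At the GI50, growth is halved. Definition used: TGI = concentration required for complete inhibition of growth.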

How the values were obtained:
Experiment in all cases: growth of human tumour cells (NCI), 48 h
786-0 renal = test system: 786-0 renal
A498 renal = test system: A498 renal
A549 NSCLC = test system: A549 NSCLC
ACHN renal = test system: ACHN renal
BT-549 breast = test system: BT-549 breast
CAKI-1 renal = test system: CAKI-1 renal
CCRF-CEM leukemia = test system: CCRF-CEM leukemia
COLO 205 colon = test system: COLO 205 colon
DU-145 prostate = test system: DU-145 prostate
EKVX NSCLC = test system: EKVX NSCLC
HCC-2998 colon = test system: HCC-2998 colon
HCT-116 colon = test system: HCT-116 colon
HCT-15 colon = test system: HCT-15 colon
HL-60(TB) leukemia = test system: HL-60(TB) leukemia
HOP-62 NSCLC = test system: HOP-62 NSCLC
HOP-92 NSCLC = test system: HOP-92 NSCLC
HS 578T breast = test system: HS 578T breast
HT29 colon = test system: HT29 colon
K-562 leukemia = test system: K-562 leukemia
KM12 colon = test system: KM12 colon
LOX IMVI melanoma = test system: LOX IMVI melanoma
M14 melanoma = test system: M14 melanoma
MALME-3M melanoma = test system: MALME-3M melanoma
MCF7 breast = test system: MCF7 breast
MDA-MB-435 = test system: MDA-MB-435
MOLT-4 leukemia = test system: MOLT-4 leukemia
NCI-H226 lung = test system: NCI-H226 lung
NCI-H23 lung = test system: NCI-H23 lung
NCI-H460 lung = test system: NCI-H460 lung
NCI-H522 lung = test system: NCI-H522 lung
NCI/ADR-RES ovarian = test system: NCI/ADR-RES ovarian
OVCAR-3 ovarian = test system: OVCAR-3 ovarian
OVCAR-4 ovarian = test system: OVCAR-4 ovarian
OVCAR-5 ovarian = test system: OVCAR-5 ovarian
OVCAR-8 ovarian = test system: OVCAR-8 ovarian
PC-3 prostate = test system: PC-3 prostate
RXF 393 renal = test system: RXF 393 renal
SF-268 CNS = test system: SF-268 CNS
SF-295 CNS = test system: SF-295 CNS
SF-539 CNS = test system: SF-539 CNS
SK-MEL-2 melanoma = test system: SK-MEL-2 melanoma
SK-MEL-28 melanoma = test system: SK-MEL-28 melanoma
SK-MEL-5 melanoma = test system: SK-MEL-5 melanoma
SK-OV-3 ovarian = test system: SK-OV-3 ovarian
SN12C renal = test system: SN12C renal
SNB-19 CNS = test system: SNB-19 CNS
SNB-75 CNS = test system: SNB-75 CNS
SR leukemia = test system: SR leukemia
SW-620 colon = test system: SW-620 colon
T-47D breast = test system: T-47D breast
TK-10 renal = test system: TK-10 renal
U251 CNS = test system: U251 CNS
UACC-257 melanoma = test system: UACC-257 melanoma
UACC-62 melanoma = test system: UACC-62 melanoma
UO-31 renal = test system: UO-31 renal

In the case of `COc1ncc(-c2ccc3nccc(C#CCCCCC(=O)O)c3c2)cc1NS(=O)(=O)c1ccc(F)cc1F`, the GI50 (786-0 renal) is reported as 1040 nM, the TGI (786-0 renal) is reported as 17300 nM and the GI50 (A498 renal) is reported as 40.8 nM. It also gave a TGI (A498 renal) of 799 nM, a GI50 (A549 NSCLC) of 557 nM and a TGI (A549 NSCLC) of over 100000 nM. The GI50 (ACHN renal) was 2730 nM, the TGI (ACHN renal) was over 100000 nM and the GI50 (BT-549 breast) was 449 nM. It also gave a TGI (BT-549 breast) of 8920 nM, a GI50 (CAKI-1 renal) of 819 nM and a TGI (CAKI-1 renal) of over 100000 nM. The GI50 (CCRF-CEM leukemia) was 1210 nM, the TGI (CCRF-CEM leukemia) was over 100000 nM and the GI50 (COLO 205 colon) was 108 nM. For the same compound, the TGI (COLO 205 colon) was 30200 nM, the GI50 (DU-145 prostate) was 2090 nM and the TGI (DU-145 prostate) was over 100000 nM. The GI50 (EKVX NSCLC) was 1110 nM, the TGI (EKVX NSCLC) was 45100 nM and the GI50 (HCC-2998 colon) was 626 nM. The TGI (HCC-2998 colon) was over 100000 nM, the GI50 (HCT-116 colon) was 6850 nM and the TGI (HCT-116 colon) was over 100000 nM. The GI50 (HCT-15 colon) was 362 nM, the TGI (HCT-15 colon) was over 100000 nM and the GI50 (HL-60(TB) leukemia) was 283 nM. It also gave a TGI (HL-60(TB) leukemia) of 59100 nM, a GI50 (HOP-62 NSCLC) of 1160 nM and a TGI (HOP-62 NSCLC) of over 100000 nM. The GI50 (HOP-92 NSCLC) was 15.8 nM, the TGI (HOP-92 NSCLC) was 620 nM and the GI50 (HS 578T breast) was 65.7 nM. It also gave a TGI (HS 578T breast) of 2340 nM, a GI50 (HT29 colon) of 82.6 nM and a TGI (HT29 colon) of over 100000 nM. The GI50 (K-562 leukemia) was 17200 nM, the TGI (K-562 leukemia) was over 100000 nM and the GI50 (KM12 colon) was 2880 nM. For the same compound, the TGI (KM12 colon) was over 100000 nM, the GI50 (LOX IMVI melanoma) was 941 nM and the TGI (LOX IMVI melanoma) was 18900 nM. The GI50 (M14 melanoma) was 1610 nM, the TGI (M14 melanoma) was over 100000 nM and the GI50 (MALME-3M melanoma) was 76.1 nM. For the same compound, the TGI (MALME-3M melanoma) was 916 nM, the GI50 (MCF7 breast) was 15 nM and the TGI (MCF7 breast) was over 100000 nM. It also gave a GI50 (MDA-MB-435) of 845 nM, a TGI (MDA-MB-435) of over 100000 nM and a GI50 (MOLT-4 leukemia) of 520 nM. It also gave a TGI (MOLT-4 leukemia) of 33500 nM, a GI50 (NCI-H226 lung) of 4730 nM and a TGI (NCI-H226 lung) of over 100000 nM. It also gave a GI50 (NCI-H23 lung) of 2390 nM, a TGI (NCI-H23 lung) of over 100000 nM and a GI50 (NCI-H460 lung) of 324 nM. The TGI (NCI-H460 lung) was over 100000 nM, the GI50 (NCI-H522 lung) was 1250 nM and the TGI (NCI-H522 lung) was over 100000 nM. It also gave a GI50 (NCI/ADR-RES ovarian) of 3970 nM, a TGI (NCI/ADR-RES ovarian) of over 100000 nM and a GI50 (OVCAR-3 ovarian) of 733 nM. The TGI (OVCAR-3 ovarian) was 23300 nM, the GI50 (OVCAR-4 ovarian) was 3620 nM and the TGI (OVCAR-4 ovarian) was 83800 nM. It also gave a GI50 (OVCAR-5 ovarian) of 122 nM, a TGI (OVCAR-5 ovarian) of over 100000 nM and a GI50 (OVCAR-8 ovarian) of 2360 nM. The TGI (OVCAR-8 ovarian) was over 100000 nM, the GI50 (PC-3 prostate) was 548 nM and the TGI (PC-3 prostate) was over 100000 nM. It also gave a GI50 (RXF 393 renal) of 1120 nM, a TGI (RXF 393 renal) of 6020 nM and a GI50 (SF-268 CNS) of 1170 nM. For the same compound, the TGI (SF-268 CNS) was over 100000 nM, the GI50 (SF-295 CNS) was 735 nM and the TGI (SF-295 CNS) was 6450 nM. The GI50 (SF-539 CNS) was 492 nM, the TGI (SF-539 CNS) was 5870 nM and the GI50 (SK-MEL-2 melanoma) was 1600 nM. It also gave a TGI (SK-MEL-2 melanoma) of 15200 nM, a GI50 (SK-MEL-28 melanoma) of 539 nM and a TGI (SK-MEL-28 melanoma) of over 100000 nM. For the same compound, the GI50 (SK-MEL-5 melanoma) was 2840 nM, the TGI (SK-MEL-5 melanoma) was 15000 nM and the GI50 (SK-OV-3 ovarian) was 43.2 nM. For the same compound, the TGI (SK-OV-3 ovarian) was 657 nM, the GI50 (SN12C renal) was 2550 nM and the TGI (SN12C renal) was over 100000 nM. For the same compound, the GI50 (SNB-19 CNS) was 2050 nM, the TGI (SNB-19 CNS) was 84900 nM and the GI50 (SNB-75 CNS) was 19.9 nM. For the same compound, the TGI (SNB-75 CNS) was 980 nM, the GI50 (SR leukemia) was 1670 nM and the TGI (SR leukemia) was 44100 nM. The GI50 (SW-620 colon) was 1910 nM, the TGI (SW-620 colon) was over 100000 nM and the TGI (T-47D breast) was 84.9 nM. It also gave a GI50 (TK-10 renal) of 84.6 nM, a TGI (TK-10 renal) of 9670 nM and a GI50 (U251 CNS) of 562 nM. For the same compound, the TGI (U251 CNS) was 27800 nM, the GI50 (UACC-257 melanoma) was 355 nM and the TGI (UACC-257 melanoma) was 5920 nM. The GI50 (UACC-62 melanoma) was 274 nM, the TGI (UACC-62 melanoma) was 3020 nM and the GI50 (UO-31 renal) was 207 nM. For the same compound, the TGI (UO-31 renal) was 14100 nM.
